From the supplement of paper PMC10307832 come the findings set out here.

Experiment in all cases: relative viability (nuclei count vs DMSO), 5 days (fraction); higher = more cells survive
Compound in the assay “QS11 + Trametinib”: C1CC2=C(C1)C=C(C=C2)OC3=NC(=C4C(=N3)N(C=N4)CC5=CC=C(C=C5)C6=CC=CC=C6)N[C@@H](CC7=CC=CC=C7)CO [QS11] + CC(=O)Nc1cccc(-n2c(=O)n(C3CC3)c(=O)c3c(Nc4ccc(I)cc4F)n(C)c(=O)c(C)c32)c1 [Trametinib] (partner 0.02 µM)
In short, it runs like this:
(§1)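 Cells from lung cancer lines were seeded into 1536-well plates and, one day later, dosed by pin tool. Treatments were either a single drug or a fixed dose of an anchor drug with five library-drug doses (not always all listed) in √10 steps. After 5 days, nuclei were stained in a one-step fixation (final 0.05% Triton X-100, 1% formaldehyde, 1 ug/ml Hoechst) and counted on 4× images, and relative viability is the treated-to-vehicle nuclei ratio, as the median of duplicate plates.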

Compound in the assay “QS11 + Pictilisib”: C1CC2=C(C1)C=C(C=C2)OC3=NC(=C4C(=N3)N(C=N4)CC5=CC=C(C=C5)C6=CC=CC=C6)N[C@@H](CC7=CC=CC=C7)CO [QS11] + CS(=O)(=O)N1CCN(Cc2cc3nc(-c4cccc5[nH]ncc45)nc(N4CCOCC4)c3s2)CC1 [Pictilisib] (partner 1 µM)
Put shortly: as §1

Compound in assay [1]: C[As](C)SC[C@H](NC(=O)CC[C@H](N)C(=O)O)C(=O)NCC(=O)O [Darinaparsin] + N=C(N)NC(=N)NCCc1ccccc1 [Phenformin] (partner 250 µM)
Put shortly: as §1

Compound in the assay “AZ628 + Alpelisib”: CC1=C(C=C(C=C1)NC(=O)C2=CC(=CC=C2)C(C)(C)C#N)NC3=CC4=C(C=C3)N=CN(C4=O)C [AZ628] + Cc1nc(NC(=O)N2CCC[C@H]2C(N)=O)sc1-c1ccnc(C(C)(C)C(F)(F)F)c1 [Alpelisib] (partner 2 µM)
In short, it runs like this: as §1

Take HCC-827: the relative viability is 0.507 with QS11 + Trametinib (first compound 0.08 µM); 0.559 in the assay with QS11 + Trametinib (first compound 0.253 µM); 0.595 with QS11 + Trametinib (first compound 0.8 µM); 0.698 in the assay with QS11 + Trametinib (first compound 2.53 µM); 0.557 with QS11 + Trametinib (first compound 8 µM); 0.881 with QS11 + Pictilisib (first compound 0.08 µM). The relative viability with QS11 + Pictilisib (first compound 0.253 µM) was determined as 1.03; with QS11 + Pictilisib (first compound 0.8 µM) it was 0.953; with QS11 + Pictilisib (first compound 2.53 µM), 1.13; with QS11 + Pictilisib (first compound 8 µM), 0.95; in assay [1] (first compound 0.08 µM) it was 0.41; in assay [1] (first compound 0.8 µM), 0.417. Also, the relative viability in assay [1] (first compound 2.53 µM) was found to be 0.331; in assay [1] (first compound 8 µM), 0.435; with AZ628 + Alpelisib (first compound 0.08 µM) it was 0.903; with AZ628 + Alpelisib (first compound 0.253 µM) it was 0.9; with AZ628 + Alpelisib (first compound 0.8 µM), 0.889; with AZ628 + Alpelisib (first compound 2.53 µM) it was 0.984. For the same cell line, the relative viability in the assay with AZ628 + Alpelisib (first compound 8 µM) was found to be 0.555.

With NCI-H727, the relative viability stood at 0.416 with QS11 + Trametinib (first compound 0.08 µM); 0.404 with QS11 + Trametinib (first compound 0.253 µM); 0.38 in the assay with QS11 + Trametinib (first compound 0.8 µM); 0.406 in the assay with QS11 + Trametinib (first compound 2.53 µM); 0.396 in the assay with QS11 + Trametinib (first compound 8 µM); 0.355 with QS11 + Pictilisib (first compound 0.08 µM). Moreover, the relative viability was 0.304 with QS11 + Pictilisib (first compound 0.253 µM); 0.407 with QS11 + Pictilisib (first compound 0.8 µM); 0.279 with QS11 + Pictilisib (first compound 2.53 µM); 0.229 with QS11 + Pictilisib (first compound 8 µM); 0.405 in assay [1] (first compound 0.08 µM); 0.416 in assay [1] (first compound 0.8 µM). Also, the relative viability in assay [1] (first compound 2.53 µM) is 0.569; in assay [1] (first compound 8 µM) it was 0.475; in the assay with AZ628 + Alpelisib (first compound 0.08 µM), 0.499; in the assay with AZ628 + Alpelisib (first compound 0.253 µM), 0.308; with AZ628 + Alpelisib (first compound 0.8 µM), 0.301; with AZ628 + Alpelisib (first compound 2.53 µM) it was 0.318. Besides, the relative viability with AZ628 + Alpelisib (first compound 8 µM) amounted to 0.23.

For the cell line NCI-H1915, the relative viability amounted to 0.292 with QS11 + Trametinib (first compound 0.08 µM); 0.292 with QS11 + Trametinib (first compound 0.253 µM); 0.288 in the assay with QS11 + Trametinib (first compound 2.53 µM); 0.309 with QS11 + Trametinib (first compound 8 µM); 0.958 in the assay with QS11 + Pictilisib (first compound 0.08 µM); 0.932 in the assay with QS11 + Pictilisib (first compound 0.253 µM). Further, the relative viability with QS11 + Pictilisib (first compound 2.53 µM) stood at 0.896; in the assay with QS11 + Pictilisib (first compound 8 µM), 0.937; in assay [1] (first compound 0.08 µM) it was 0.404; in assay [1] (first compound 0.8 µM), 0.373; in assay [1] (first compound 2.53 µM), 0.359; in assay [1] (first compound 8 µM), 0.375. Moreover, the relative viability turned out to be 1.09 in the assay with AZ628 + Alpelisib (first compound 0.08 µM); 1.04 with AZ628 + Alpelisib (first compound 0.253 µM); 0.911 in the assay with AZ628 + Alpelisib (first compound 0.8 µM); 0.708 with AZ628 + Alpelisib (first compound 2.53 µM); 0.564 with AZ628 + Alpelisib (first compound 8 µM).

NCI-H2347: the relative viability with QS11 + Trametinib (first compound 0.08 µM) was 0.27; in the assay with QS11 + Trametinib (first compound 0.253 µM), 0.292; in the assay with QS11 + Trametinib (first compound 0.8 µM), 0.273; with QS11 + Trametinib (first compound 2.53 µM) it was 0.313; with QS11 + Trametinib (first compound 8 µM), 0.286; in the assay with QS11 + Pictilisib (first compound 0.08 µM), 0.537. Also, the relative viability is 0.715 with QS11 + Pictilisib (first compound 0.253 µM); 0.699 with QS11 + Pictilisib (first compound 0.8 µM); 0.606 with QS11 + Pictilisib (first compound 2.53 µM); 0.666 with QS11 + Pictilisib (first compound 8 µM); 0.451 in assay [1] (first compound 0.08 µM); 0.396 in assay [1] (first compound 2.53 µM). Besides, the relative viability in assay [1] (first compound 8 µM) was found to be 0.403; in the assay with AZ628 + Alpelisib (first compound 0.08 µM), 0.679; in the assay with AZ628 + Alpelisib (first compound 0.253 µM), 0.934; with AZ628 + Alpelisib (first compound 0.8 µM), 0.779; with AZ628 + Alpelisib (first compound 2.53 µM) it was 0.822; with AZ628 + Alpelisib (first compound 8 µM) it was 0.471.

As to NCI-H647, the relative viability with QS11 + Trametinib (first compound 0.08 µM) stood at 0.472; with QS11 + Trametinib (first compound 0.253 µM), 0.428; with QS11 + Trametinib (first compound 0.8 µM) it was 0.411; with QS11 + Trametinib (first compound 2.53 µM), 0.575; in the assay with QS11 + Trametinib (first compound 8 µM) it was 0.544; with QS11 + Pictilisib (first compound 0.253 µM) it was 0.379. Also, the relative viability in the assay with QS11 + Pictilisib (first compound 0.8 µM) came out at 0.41; in the assay with QS11 + Pictilisib (first compound 2.53 µM), 0.685; in the assay with QS11 + Pictilisib (first compound 8 µM), 0.478; in assay [1] (first compound 0.08 µM), 0.62; in assay [1] (first compound 0.8 µM), 0.479; in assay [1] (first compound 2.53 µM) it was 0.474. The relative viability in assay [1] (first compound 8 µM) amounted to 0.696; with AZ628 + Alpelisib (first compound 0.08 µM), 1.3; in the assay with AZ628 + Alpelisib (first compound 0.253 µM), 0.952; in the assay with AZ628 + Alpelisib (first compound 0.8 µM), 0.842; in the assay with AZ628 + Alpelisib (first compound 2.53 µM) it was 1.09; in the assay with AZ628 + Alpelisib (first compound 8 µM) it was 0.858.

On to CAL-12T, for which the relative viability came to 0.313 with QS11 + Trametinib (first compound 0.08 µM); 0.328 in the assay with QS11 + Trametinib (first compound 0.253 µM); 0.355 with QS11 + Trametinib (first compound 0.8 µM); 0.367 with QS11 + Trametinib (first compound 2.53 µM); 0.358 with QS11 + Trametinib (first compound 8 µM); 0.446 with QS11 + Pictilisib (first compound 0.08 µM). The relative viability with QS11 + Pictilisib (first compound 0.253 µM) is 0.412; with QS11 + Pictilisib (first compound 0.8 µM) it was 0.665; with QS11 + Pictilisib (first compound 2.53 µM) it was 0.314; in the assay with QS11 + Pictilisib (first compound 8 µM), 0.38; in assay [1] (first compound 0.08 µM) it was 0.657; in assay [1] (first compound 0.8 µM), 0.534. Moreover, the relative viability stood at 0.478 in assay [1] (first compound 2.53 µM); 0.605 in assay [1] (first compound 8 µM); 1.29 in the assay with AZ628 + Alpelisib (first compound 0.08 µM); 1.2 with AZ628 + Alpelisib (first compound 0.8 µM); 1.34 in the assay with AZ628 + Alpelisib (first compound 2.53 µM); 0.503 in the assay with AZ628 + Alpelisib (first compound 8 µM).
